Measured values as given in PubChem BioAssay AID330 (DTP/NCI, 2004).
Values joined by “and” are separate entries in the source; they are usually repeats but may differ in a detail not shown here. Identical values can stand only once. Inconclusive results and toxic doses are left out. How the source made its calls: active means survival T/C of 150% or more; inactive means T/C below 125% in these data.

Tested on: P388 leukemia ip, CD2F1 mice, survival T/C
Test: NCI In Vivo Anticancer Drug Screen. Data for tumor model P388 Leukemia (intraperitoneal) in CD2F1 (CDF1) mice
Conditions: endpoint: median survival time, higher = longer survival
Method in brief: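 Mice carrying the transplanted tumor received test compound or vehicle. Survival was recorded in each group, and the value is the treated-group measurement divided by that of the vehicle-treated control group.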

[1] = dose: 100.0 mg/kg/injection, schedule: Q01DX005 (ip), vehicle: saline with Tween-80
[2] = dose: 200.0 mg/kg/injection, schedule: Q01DX005 (ip), vehicle: saline with Tween-80
[3] = dose: 100.0 mg/kg/injection, schedule: Q04DX002 (ip), vehicle: Klucel (hydroxypropylcellulose) (HPC)
[4] = dose: 200.0 mg/kg/injection, schedule: Q04DX002 (ip), vehicle: Klucel (hydroxypropylcellulose) (HPC)
[5] = dose: 400.0 mg/kg/injection, schedule: Q04DX002 (ip), vehicle: Klucel (hydroxypropylcellulose) (HPC)
[6] = dose: 50.0 mg/kg/injection, schedule: Q01DX005 (ip), vehicle: saline with Tween-80
[7] = dose: 25.0 mg/kg/injection, schedule: Q01DX009 (ip), vehicle: other
[8] = dose: 50.0 mg/kg/injection, schedule: Q01DX009 (ip), vehicle: other
[9] = dose: 100.0 mg/kg/injection, schedule: Q01DX009 (ip), vehicle: other
[10] = dose: 100.0 mg/kg/injection, schedule: Q04DX003 (ip), vehicle: saline with Tween-80
[11] = dose: 200.0 mg/kg/injection, schedule: Q04DX003 (ip), vehicle: saline with Tween-80
[12] = dose: 400.0 mg/kg/injection, schedule: Q04DX003 (ip), vehicle: saline with Tween-80
[13] = dose: 12.5 mg/kg/injection, schedule: Q01DX009 (ip), vehicle: saline
[14] = dose: 25.0 mg/kg/injection, schedule: Q01DX009 (ip), vehicle: saline
[15] = dose: 50.0 mg/kg/injection, schedule: Q01DX009 (ip), vehicle: saline
[16] = dose: 50.0 mg/kg/injection, schedule: Q01DX009 (ip), vehicle: Klucel (hydroxypropylcellulose) (HPC)
[17] = dose: 100.0 mg/kg/injection, schedule: Q01DX009 (ip), vehicle: Klucel (hydroxypropylcellulose) (HPC)
[18] = dose: 15.0 mg/kg/injection, schedule: Q01DX005 (ip), vehicle: saline with Tween-80
[19] = dose: 30.0 mg/kg/injection, schedule: Q01DX005 (ip), vehicle: saline with Tween-80
[20] = dose: 60.0 mg/kg/injection, schedule: Q01DX005 (ip), vehicle: saline with Tween-80
[21] = dose: 100.0 mg/kg/injection, schedule: Q01DX009 (ip), vehicle: saline
[22] = dose: 200.0 mg/kg/injection, schedule: Q01DX009 (ip), vehicle: saline

Measured: T/C

COc1cc2nc(C)[n+]3nc([O-])ccc3c2cc1OC
inactive: dose: 60.0 mg/kg/injection, schedule: Q01DX005 (ip), vehicle: suspension in saline 112 % of control | dose: 120.0 mg/kg/injection, schedule: Q01DX005 (ip), vehicle: suspension in saline 104 % of control | dose: 240.0 mg/kg/injection, schedule: Q01DX005 (ip), vehicle: suspension in saline 108 % of control

N#CC1SC(C#N)C(c2ccc(Cl)cc2)OC1c1ccc(Cl)cc1 (centres undefined)
inactive: dose: 6.25 mg/kg/injection, schedule: Q01DX005 (ip), vehicle: saline with Tween-80 93 % of control | dose: 12.5 mg/kg/injection, schedule: Q01DX005 (ip), vehicle: saline with Tween-80 91 % of control | dose: 25.0 mg/kg/injection, schedule: Q01DX005 (ip), vehicle: saline with Tween-80 90 % of control | [1] 91 % of control | [2] 104 % of control

NNC(=O)C1CC2CCCCC2CC1O (centres undefined)
inactive: [3] 101 % of control | [4] 99 % of control | [5] 108 % of control

O=C1Nc2ccc3[nH]ncc3c2C1=O
inactive: [6] 101 % of control | [1] 103 % of control | [2] 109 % of control

CCOC(=O)C(c1ccccc1)C(CC=C(C)C)(C(C)=O)C(=O)OC (centres undefined)
inactive: dose: 100.0 mg/kg/injection, schedule: Q04DX002 (ip), vehicle: saline with Tween-80 103 % of control | dose: 200.0 mg/kg/injection, schedule: Q04DX002 (ip), vehicle: saline with Tween-80 103 % of control | dose: 400.0 mg/kg/injection, schedule: Q04DX002 (ip), vehicle: saline with Tween-80 105 % of control

Cc1[nH]c(=O)[nH]c(=O)c1/C=C/C(=O)NC(CO)CSCc1ccccc1 (centres undefined)
inactive: dose: 6.25 mg/kg/injection, schedule: Q01DX009 (ip), vehicle: other 94 % of control | dose: 12.5 mg/kg/injection, schedule: Q01DX009 (ip), vehicle: other 94 % of control | [7] 94 % of control | [8] 88 % of control | [9] 87 % of control | dose: 200.0 mg/kg/injection, schedule: Q01DX009 (ip), vehicle: other 98 % of control | dose: 400.0 mg/kg/injection, schedule: Q01DX009 (ip), vehicle: other 95 % of control

COc1ccc(/C=N/NC(N)=S)cc1
inactive: dose: 100.0 mg/kg/injection, schedule: Q01DX009 (ip), vehicle: saline with Tween-80 109 % of control | [10] 100 % of control | dose: 200.0 mg/kg/injection, schedule: Q01DX009 (ip), vehicle: saline with Tween-80 100 % of control | [11] 113 % of control | dose: 400.0 mg/kg/injection, schedule: Q01DX009 (ip), vehicle: saline with Tween-80 109 % of control | [12] 109 % of control

Oc1c(CN2CCCC2)cc(Nc2nccc(/C=C/c3ccc(Cl)cc3)n2)cc1CN1CCCC1
inactive: dose: 6.25 mg/kg/injection, schedule: Q01DX009 (ip), vehicle: saline 106 % of control | [13] 106 % of control | [14] 110 % of control | [15] 114 % of control

Nn1nnc(-c2ccccc2)n1
inactive: [16] 96 % of control | [17] 96 % of control | dose: 200.0 mg/kg/injection, schedule: Q01DX009 (ip), vehicle: Klucel (hydroxypropylcellulose) (HPC) 97 % of control

c1ccc2c(c1)-c1ccccc1C1NC21 (centres undefined)
inactive: dose: 12.5 mg/kg/injection, schedule: Q01DX001 (ip), vehicle: saline with Tween-80 99 % of control and 110 % of control | dose: 25.0 mg/kg/injection, schedule: Q01DX001 (ip), vehicle: saline with Tween-80 105 % of control and 110 % of control and 123 % of control | dose: 50.0 mg/kg/injection, schedule: Q01DX001 (ip), vehicle: saline with Tween-80 113 % of control | [6] 112 % of control | dose: 100.0 mg/kg/injection, schedule: Q01DX001 (ip), vehicle: saline with Tween-80 113 % of control | [1] 110 % of control | [2] 119 % of control

Cc1ccc(C2(c3ccccc3)OC(=O)c3ccccc32)cc1 (centres undefined)
inactive: dose: 200.0 mg/kg/injection, schedule: Q01DX009 (ip), vehicle: saline sonified 95 % of control

[N-]=[N+]=NCC(O)COc1c2ccccc2nc2ccccc12 (centres undefined)
inactive: [18] 95 % of control | [19] 99 % of control | [20] 112 % of control

Cc1ccc(Cl)cc1NS(=O)(=O)c1ccc(Br)cc1
inactive: [10] 100 % of control | [11] 100 % of control | [12] 104 % of control

O=C(CCN1CCOCC1)c1ccccc1
inactive: [13] 100 % of control | [14] 101 % of control | [15] 100 % of control | [21] 104 % of control | [22] 103 % of control

COC(=O)/C(CC(=O)O)=C(\c1ccc2c(c1)OCO2)c1cc(OC)c(OC)c(OC)c1
inactive: [3] 100 % of control | [4] 103 % of control | [5] 100 % of control

O=C(CCl)N1CCN(C/C=C/c2ccccc2)CC1
inactive: dose: 60.0 mg/kg/injection, schedule: Q01DX005 (ip), vehicle: saline 103 % of control | dose: 120.0 mg/kg/injection, schedule: Q01DX005 (ip), vehicle: saline 105 % of control

CN1CCc2cc3c(c4c2C1C(O)c1ccccc1-4)OCO3 (centres undefined)
inactive: dose: 0.12 mg/kg/injection, schedule: Q01DX009 (ip), vehicle: acid diluted with saline 109 % of control | dose: 0.25 mg/kg/injection, schedule: Q01DX009 (ip), vehicle: acid diluted with saline 97 % of control | dose: 2.0 mg/kg/injection, schedule: Q01DX009 (ip), vehicle: acid diluted with saline 92 % of control | dose: 4.0 mg/kg/injection, schedule: Q01DX009 (ip), vehicle: acid diluted with saline 108 % of control

COc1ccc2c(c1)c1ccnc3ccc(=O)n2c31
inactive: dose: 0.83 mg/kg/injection, schedule: Q01DX009 (ip), vehicle: saline with Tween-80 98 % of control | dose: 1.65 mg/kg/injection, schedule: Q01DX009 (ip), vehicle: saline with Tween-80 109 % of control | dose: 3.29 mg/kg/injection, schedule: Q01DX009 (ip), vehicle: saline with Tween-80 109 % of control | dose: 6.58 mg/kg/injection, schedule: Q01DX009 (ip), vehicle: saline with Tween-80 109 % of control

COc1ccc(-c2nccc3cc(OC)c(OC)cc23)cc1O
inactive: [7] 100 % of control | [8] 86 % of control | [9] 86 % of control

CCOC(=O)c1cc(Cl)cc2c(=O)c3c(O)c4[nH]c5c(C(=O)OCC)cc(Cl)cc5c(=O)c4c(O)c3[nH]c12
inactive: [16] 97 % of control | [17] 106 % of control

O=c1oc2ccccc2c(O)c1C(c1ccc2c(c1)OCO2)N1CCCC1 (centres undefined)
inactive: [18] 100 % of control | [19] 102 % of control | [20] 99 % of control and 103 % of control

CSc1cccnc1SC
inactive: [15] 98 % of control | [21] 98 % of control | [22] 92 % of control

C=C(C)CNC(=O)C(C)O (centres undefined)
inactive: [6] 97 % of control | [1] 93 % of control | [2] 99 % of control

Cc1cn(C2CC(O)C(C(=O)Nc3ccc(C(=O)CCl)cc3)O2)c(=O)[nH]c1=O (centres undefined)
inactive: [6] 108 % of control | [1] 114 % of control | [2] 109 % of control

Cn1ncc2c(NCCc3ccccc3)ncnc21
inactive: [10] 109 % of control

CC(=O)OCCC/C(=C/c1cc2ccccc2c2ccccc12)[N+](=O)[O-]
inactive: dose: 100.0 mg/kg/injection, schedule: Q04DX003 (ip), vehicle: Klucel (hydroxypropylcellulose) (HPC) 104 % of control | dose: 200.0 mg/kg/injection, schedule: Q04DX003 (ip), vehicle: Klucel (hydroxypropylcellulose) (HPC) 109 % of control | dose: 400.0 mg/kg/injection, schedule: Q04DX003 (ip), vehicle: Klucel (hydroxypropylcellulose) (HPC) 109 % of control

O=C([O-])C(=O)[O-].[Co+3].[NH2-].[NH2-].[NH2-].[NH2-].[O-][Cl+3]([O-])([O-])O
inactive: dose: 12.5 mg/kg/injection, schedule: Q04DX003 (ip), vehicle: water 89 % of control | dose: 25.0 mg/kg/injection, schedule: Q04DX003 (ip), vehicle: water 95 % of control | dose: 50.0 mg/kg/injection, schedule: Q04DX003 (ip), vehicle: water 98 % of control | dose: 100.0 mg/kg/injection, schedule: Q04DX003 (ip), vehicle: water 94 % of control
